Experimental data published in US5064826A, “Novel triazolo-pyrimidine derivatives” (priority 1989, dated 1991).

Experiments:
[1] = Antidepressant activity shown against tetrabenazine ptosis (T.P.) after p.o. administration; assay type: in vivo; conditions: for ED50: po, read-out: T.P. ED50; for TI (therapeutic index), T.P.: tetrabenazine ptosis, p.o. administration, TI = therapeutic index = LD50 (so in the source)
Excerpt: (§1) Antidepressant activity of some of compounds of formulae Ia
(§2) and Ib shown against tetrabenazine ptosis (T.P.) and
(§3) analgesic activity in Writhing test (W.t.) after p.o. administration
TI = therapeutica1 index = LD50

[2] = Analgesic activity in Writhing test (W.t.) after p.o. administration; assay type: in vivo; conditions: for ED50: po, read-out: W.t. ED50
Excerpt: as §1, §2, §3
TI = therapeutica1 index = LD50

SMILES | ED50 [1] [mg/kg] | TI (therapeutic index), T.P. [1] | TI (therapeutic index), W.t. ([2]; Writhing test, p.o. administration, TI = therapeutic index = LD50 (so in the source)) | ED50 [2] [mg/kg]
CN(C)c1nc2[nH]c3c(c(=O)n2n1)SCCC3 [Example 19, 2-Dimethylamino-5,7,8,9-tetrahydrothiopyrano[3,2-d]-1,2,4-triazolo[1,5-a]pyrimidine-5(10H)-one] | 2.7 | 748 |  | 
O=c1c2c([nH]c3nc(N4CCOCC4)nn13)CCCS2 [Example 21, 2-Morpholino-5,7,8,9-tetrahydrothiopyrano[3,2-d]-1,2,4-triazolo[1,5-a]pyrimidine-5(10H)-one] | 5.2 | 385 |  | 
O=c1c2c([nH]c3nc(NC4CCCCC4)nn13)CCCS2 [Example 25, 2-Cyclohexylamino-5,7,8,9-tetrahydrothiopyrano[3,2-d]-1,2,4-triazolo[1,5-a]pyrimidine-5(10H)-one] | 22.5 | 87 |  | 
CC(C)(C)Nc1nc2[nH]c3c(c(=O)n2n1)SCCC3 [Example 26, 2-t-Butylamino-5,7,8,9-tetrahydrothiopyrano[3,2-d]-1,2,4-triazolo[1,5-a]pyrimidine-5(10H)-one] |  |  | 5.6 | 355
CN(C)CCC=C1c2ccccc2CCc2ccccc21 [amitriptyline, 5(3-dimethylaminopropylidene)dibenz/a,d/1,4-cycloheptadiene, reference compound] | 12 | 19 |  | 
CC(=O)Nc1ccc(O)cc1 [paracetamol, p(acetylamino)-phenol, reference compound] |  |  |  | 421
